# Source: patent EP4417616A1, “LXR ANTAGONISTS” (Ospedale San Raffaele S.r.l., priority 2023, dated 2024)
# What was measured:
# [1] = system: MC-38-OVA-liver metastases; format: in vivo, mice; settings: 1440 h
# Description: (§1) . Forty-eight hours later the cells were differentiated and expanded by IL-7/IL15 (5ng/ml both cytokines) with or without PFM037. Ten, 12 and 15 days later, FACS analysis was performed to evaluate their differentiation status. […]. Then, mice bearing MC-38-OVA-liver metastases were treated with vehicle, or OT-I T cells expanded with IL-2 (effectors), or IL-7/IL15 with or without PFM037. Tumor-bearing mice injected with vehicle were all dead 40 days after tumor injection. Twenty percent of tumor-bearing mice treated with OT-I T cells expanded with IL-2 were alive at 60 days, whereas 50% and 80% of tumor-bearing mice treated with IL-7/IL15 with or without PFM037, respectively, were alive at 60 days (Fig. 20). […].
# LLC tumor cells = experiment: In vitro growth of LLC tumor cells; format: cell-based, mouse; settings: compared with vehicle
# human T cells = experiment: In vitro expansion of activated human T cells by IL-7/IL15; format: cell-based; settings: human T cells expanded by IL-7/IL15 with PFM037 (5 and 10 µM)
# LLC tumors = experiment: NMR lipidomic profiling of LLC tumors; settings: PFM037-treated vs vehicle-treated LLC tumors
# Description: Extraction of the lipidic and polar fractions from tumor tissues. […] They were resuspended in 170 µL of H2O and 700 µL of methanol and sonicated for 60 sec. Then, 350 µL of chloroform were added and mixed the samples on an orbital shaker in ice for 10 minutes. After that, 350 µL of H2O/chloroform (1:1, v/v) were added to each suspension and centrifuged at 4000 rpm for 10 minutes at 4°C. Thereafter, the aqueous (polar) and lipidic (non-polar) phases were collected separately, transferred to a glass vial and evaporated.
# ^1H NMR spectra acquisition and data analysis. All the lipidic and polar samples were analyzed using Nuclear Magnetic Resonance (NMR). The lipidic fractions were dissolved in 700 µL of deuterated chloroform (CDCl3) and 0.03 volume percentage of tetramethylsilane (TMS) and inserted in NMR tubes whereas the polar fractions were dissolved in 630 µL of PBS-D2O with the pH adjusted to 7.20, and 70 µL of trimethylsilylpropanoic acid (TSP) (1% in D2O). TMS and TSP were used as the internal standards. […] All ^1H NMR spectra were manually phased and baseline-corrected and referenced to the CH3 resonance of TSP or TMS at 0 ppm. The spectral 0.50-8.60 ppm region of ^1H-NMR spectra was integrated in buckets of 0.04 ppm by AMIX package (Bruker, Biospin, Germany). […]
# melanoma B16F1-OVA = experiment: Treatment of B16F1-OVA-bearing mice; format: in vivo
# Excerpt: Tumor challenge experiments.
# RMA lymphoma = experiment: Treatment of RMA tumor-bearing mice; settings: 300 µg i.v. 5 days/week
# Description: Analysis of tumor infiltrating cells by flow cytometry. […] Tumors collected 7, 10, 12 or 14 days after injection were cut into small fragments and digested with Liberase TL (66 µg/ml, Roche) and DNAse I (150 µg/ml, Roche) for 25-30 minutes at 37 °C. Digested tissues were filtered by using a 75 µm diameter cell strainer. Single cell suspensions were stained with Live/Dead Violet kit reagents (Molecular Probes) for 30 minutes at 4°C. After washing, the cells were incubated for 5-10 minutes at RT with Fc-blocking solution (Anti-CD16/32, 10 µg/ml mouse Fc Block, BD) and then stained with various antibodies incubated at 4°C for 20 minutes. […] CD209a (5H10), CCR7 (4b12) and F4/80 (BM8) were from eBioscience. Rat IgG, Rat IgG2a, Rat IgG2b, Rat IgM and Hamster isotype control mAbs were used as controls (Biolegends and BD Biosciences). For intracellular staining, cells were incubated with PMA (100 ng/ml) and ionomycin (500 ng/ml) in the presence of 10 µg/ml of Brefeldin for 4 hours. Cells were then fixed using the IC Fixation buffer (eBioscience), permeabilized with 1x Permeabilization buffer (eBiosciences) and stained with anti-IFNy mAb. Samples were run by FACSCanto flow cytometer and analyzed by FlowJo software gating on live cells. FACS sorting was performed by using the FACSAria Fusion (BD)
# Tumor challenge experiments. C57BL/6 mice were injected subcutaneously with LLC-Mock (1 ×10^6), LLC-SULT2B1b (1 ×10^6), RMA (2 ×10^5), or B16F1-OVA (2 ×10^5) tumor cells. […] Tumor size was evaluated by measuring perpendicular diameters by a caliper every 2-3 days. Data are reported as the average tumor volume ± SD. In selected experiments tumors were injected in Ccr2^-/-mice.
# Treatment of tumor-bearing mice with LXR antagonists alone or with immunotherapy. Tumor-bearing mice were treated with 25-HC-3S or PFM037 6-7 days after tumor challenge. After 6-7 days, mice were randomly assigned to either treatment or vehicle groups. Mice were injected with 300 µg of either compound given i.v. for 5 days/week. […] B16F1-OVA-bearing mice were treated with 400 µg of PFM037 for 5 days/week. For controls of mAb experiments, mice were injected with 250 µg of rat IgG2a isotype control antibody. […] Tumors were collected and measured 14 days after tumor challenge.
# OT-I T cells = experiment: In vitro differentiation and expansion of activated OT-I T cells by IL-7/IL15; format: cell-based, mouse
# Description: as §1
# [2] = OT-I T cells expanded by IL-7/IL15 with PFM037, FACS at 10, 12 and 15 days
compound,measurement,setting,value
"CC(C)CC[C@H](O)[C@@H](C)[C@H]1CC[C@H]2[C@@H]3CC=C4C[C@@H](OS(=O)(=O)[O-])CC[C@]4(C)[C@H]3CC[C@]12C.[Na+] [PFM037, 22(S)-Hydroxycholesterol-3-sulfate sodium salt]",tumor-bearing mice alive at 60 days,[1],50%
same,in vitro growth of LLC tumor cells,LLC tumor cells,grew in a similar manner
same,markers associated to memory/stem cell memory T cells,human T cells,higher levels
same,proton signals of ω-3 fatty acid docosahexaenoic acid and its derivatives,LLC tumors,lower levels
same,proton signals of ω-6 fatty acid arachidonic acid and its derivatives,LLC tumors,enriched
same,"antitumor activity, 400 µg compared with 300 µg",melanoma B16F1-OVA,much stronger
same,tumor growth,melanoma B16F1-OVA; 400 µg 5 days/week,delayed the growth
same,numbers of tumor-infiltrating mono-DCs,RMA lymphoma,Higher
same,tumor growth,RMA lymphoma; tumor weight at sacrifice,tumor growth control
same,CD39 and CD69 markers,OT-I T cells; [2],progressively lost
same,CD62L and CD44low markers,OT-I T cells; [2],progressively acquiring
same,"stemness markers Sca1, Tcf1 and CXCR3",OT-I T cells; T cells expanded by IL7 and IL15 in the presence of PFM037,higher levels
